One experiment concerns F. nucleatum. The experiment in a line: Growth inhibition assay on an unrelated organism. The format is cell-based, Fusobacterium nucleatum. The settings on record: 20 μM, over 72 h (FIG. 7C). As for the experimental part:
As it is useful to test the mono-adducts 20 and 21 on non-related bacteria as well, as there is a large and complex community of bacteria present in the gingival crevice causing periodontal diseases, the mono-adducts 20 and 21 were also tested on the unrelated organism F. nucleatum.
(§1) Bovine hemoglobin (Hb), Hb-agarose beads, hemin (Hm) and Hm-agarose beads were supplied by Sigma-Aldrich Company. The translated product of a synthetic HA2 gene, derived from the sequence of RgpA, was expressed in E. coli with a C-terminal polyhistidine tag (International Patent Application No. WO 2002061091) and is referred to as rHA2. rHA2 was functionally purified by Hb-agarose affinity chromatography. Anti-gingipain monoclonal antibody (mAb) 5A1 was prepared in mice. Secondary goat anti-mouse antibody conjugated with alkaline phosphatase (AP) was supplied by Dako Corporation. 4-nitrophenylphosphate (p-NPP) was supplied by Boehringer. P. gingivalis ATCC 33277 cells was used in all growth assays and cultures were anaerobically grown at 37° C. in an atmosphere containing CO2 (5%), H2 (10%) and N2 (85%). P. gingivalis and P. melaminogenica cells were grown in Center for Disease Control (CDC) medium and F. nucleatum cells were grown in Brain Heart Infusion (BHI) medium.

The test system of experiment [1] is P. gingivalis ATCC 33277 cells. The experiment in a line: Growth inhibition assay, turbidity (optical density) over 72 h. The format is cell-based, Porphyromonas gingivalis. As for the experimental part: The mono-adducts 20 and 21 and metronidazole were tested on the targeted organism, P. gingivalis with the standard controls to compare the potency of the mono-adducts 20 and 21 compared to metronidazole towards the targeted organism. In a 96-well polystyrene plate divided into four sections, a series of dilutions of the mixture of the mono-adducts 20 and 21, metronidazole, DPIX 5 and DMSO were made up. These were transferred into test-tubes in quadruplicate and the P. gingivalis cells were added in triplicate leaving one test-tube as a blank control free of P. gingivalis cells. The growth of the P. gingivalis cells were monitored over 3 days (72 h) and growth was noted by the turbidity of the medium and recorded as the optical density.
The growth inhibition assays show differences in growth responses to metronidazole and the mixture of the mono-adducts 20 and 21.
as §1
Cultivation and biological testing were carried out on P. gingivalis ATCC 33277 cells and the cultures were anaerobically grown at 37° C. in an atmosphere containing CO2 (5%), H2 (10%) and N2 (85%). The cultures were inoculated with heme, menadione and either DMSO, DPIX 5, metronidazole, DPIX 5+ metronidazole or adduct 20 and 21. In a 96-well polystyrene plate divided into four sections, a series of dilutions of the mixture of the mono-adducts 20 and 21, metronidazole, DPIX 5 and DMSO were made up. These were transferred into test-tubes in quadruplicate and the P. gingivalis cells were added in triplicate leaving one test-tube as a blank control free of P. gingivalis cells. The growth of the P. gingivalis cells were monitored over 3 days (72 h) and growth was noted by the turbidity of the medium and recorded as the optical density.

Experiment [2] deals with P. gingivalis ATCC 33277 cells. The settings on record: literature (Poulet et al. 1999; Mitchell 1984); cited from earlier work.
For a further experiment, the system named is P. melaminogenica. Kind of experiment: Growth inhibition assay on a related organism. Type of experiment: cell-based, Prevotella melaminogenica. The settings on record: 20 μM, over 72 h (FIG. 7B). As for the experimental part:
as §1

Experiment [3] deals with HA2 domain (rHA2, derived from the sequence of RgpA). The experiment in a line: ELISA binding of plate-coated porphyrin to rHA2. On the set-up: species or system Porphyromonas gingivalis. The settings on record: FIG. 5, mean of three similar KD50s, read-out: KD50 to HA2. As for the experimental part: The KD50 of the mono-adducts 20 and 21 to HA2 was established using Enzyme-Linked ImmunoSorbent Assay (ELISA), whereby a 96-well polystyrene plate was coated with either the mono-adducts 20 and 21 or hemin in an alkaline coating buffer at pH 9.0. The plates were then washed and blocked for 30 min with a phosphate buffered saline solution containing Tween-20, a […] detergent to prevent any non-specific binding. Dilutions of HA2 in a slightly acidic acetate buffer at pH 5.5 were then titrated down the rows of the 96-well plate and the plate was incubated in an IR Sensor CO2 incubator at 37° C. for 1.5 h to allow binding of either the mono-adducts 20 and 21 or hemin to HA2. […] A secondary goat anti-mouse antibody conjugated with alkaline phosphatase (AP) was then added to detect the primary antibody and the binding of either the mono-adducts 20 and 21 or hemin to HA2 was recorded as optical density on a Bio-rad Microplate reader as the amount of dephosphorylation of the substrate para-nitrophenolphosphate to para-nitrophenol catalyzed by AP. […]
The mixture of mono-metronidazole-substituted adducts 20 and 21 and heme (both at 5 μg/ml) were coated on the plastic well surfaces of a 96-well plate in coating buffer at pH 9.0. […] Apparent dissociation constants were calculated from best-fit KD50 binding curves.
On the technique in general: An ELISA detects its analyte on a solid surface through an enzyme-linked reagent.

For experiment [4] the target is unchanged. The following applies: known value for the standard; read-out: binding dissociation constant to HA2; cited from earlier work.

The source of these data is patent publication US20090092550A1, “PORPHYRIN LINKED METRONIDAZOLE AGAINST GUM DISEASE: PORPHYROMONAS GINGIVALIS” (The University of Sydney, priority 2004, published 2009).

pKd: −log10 of the molar value. ≈ marks a conversion by molar mass, not a printed value. Where two headings read alike, the source gives them in different places.

For `Cc1ncc([N+](=O)[O-])n1CCO` [metronidazole], in the experiment with F. nucleatum, the “growth inhibition of F. nucleatum” value was “complete inhibition”. Besides, the “growth suppression of P. gingivalis” value in experiment [1] (0.5 μM, over 72 h (FIG. 6E)) is on record as “no effect of growth suppression”; in experiment [1] (2 KM, over 72 h (FIG. 6C)), “completely supresses growth”. For the same molecule, the “time after which activity is lost and P. gingivalis growth recovers” value in experiment [1] (1 μM (FIG. 6D)) is “approximately 50 h”. Moreover, the “growth inhibition of P. gingivalis” value is given as “complete inhibition” in experiment [1] (4 μM, over 72 h (FIG. 6B)) and “complete inhibition of growth” in experiment [1] (20 μM, over 72 h (FIG. 6A, FIG. 7A)). In experiment [1] (Porphyromonas gingivalis, ATCC33277, P. gingivalis, approximate, from FIG. 6, read-out: Minimum Inhibitory Concentration (MIC)), the MIC fell in the range of 1 to 2 µM (≈ 0.171 to 0.342 µg/mL). In addition, in experiment [2], the “activity against P. gingivalis” value is recorded as “excellent activity”. Moreover, the “growth inhibition of P. melaminogenica” value with P. melaminogenica is reported as “complete suppression of growth”.

Turning to hemin, the results for the pKd in experiment [3] and in experiment [4] were 7.82 and about 7.82, respectively.
